Values after ≈ are worked out from the molar mass of the structure shown. Values belong to the compound of their own block, whether it stands above or below them.
Legend:
[1] = standards: high / moderate / low aqueous solubility; cited from earlier work
[2] = target: P-gp (Homo sapiens, UniProt P08183); assay: P-gp inhibition, intracellular accumulation of Rh123 in LS180 cells; assay type: cell-based
[3] = test system: P-gp; assay: P-gp induction, intracellular accumulation of Rh123 in LS180 cells; assay type: cell-based
[4] = Equilibrium solubility in biorelevant media, shake-flask method; assay type: physicochemical; conditions: water, 37 °C, thermodynamic from solid
[5] = pKa, UV-metric method; assay type: physicochemical; conditions: Britton-Robinson buffer, pH 1.81
[6] = Chemical stability in SGF and SIF; assay type: physicochemical; conditions: 37 °C, 10 µM
[7] = GI permeability, PAMPA; assay type: in vitro ADME; conditions: pH 7.4
[8] = Plasma stability in rat plasma; assay type: in vitro ADME; conditions: 5 µM, 2 h, 37°C
[9] = Plasma protein binding, rapid equilibrium dialysis; assay type: in vitro ADME; conditions: rat, pH 7.4
[10] = RBC partitioning in rat blood and plasma; assay type: in vitro ADME; conditions: fresh whole blood and reference plasma
[11] = Metabolic stability in liver microsomes; assay type: in vitro ADME, human, monkey, dog, rat, mouse; conditions: MLM, RLM, DLM, MkLM, HLM; 1 mg/mL protein, 5 µM, 30 min
[12] = target: T1, CYP2C8 (Homo sapiens, UniProt P10632); assay: CYP inhibition in HLM, CYP2C8; assay type: biochemical; conditions: IC50 (μM), amodiaquine N-deethylation
T1 sequence (P10632 1-490): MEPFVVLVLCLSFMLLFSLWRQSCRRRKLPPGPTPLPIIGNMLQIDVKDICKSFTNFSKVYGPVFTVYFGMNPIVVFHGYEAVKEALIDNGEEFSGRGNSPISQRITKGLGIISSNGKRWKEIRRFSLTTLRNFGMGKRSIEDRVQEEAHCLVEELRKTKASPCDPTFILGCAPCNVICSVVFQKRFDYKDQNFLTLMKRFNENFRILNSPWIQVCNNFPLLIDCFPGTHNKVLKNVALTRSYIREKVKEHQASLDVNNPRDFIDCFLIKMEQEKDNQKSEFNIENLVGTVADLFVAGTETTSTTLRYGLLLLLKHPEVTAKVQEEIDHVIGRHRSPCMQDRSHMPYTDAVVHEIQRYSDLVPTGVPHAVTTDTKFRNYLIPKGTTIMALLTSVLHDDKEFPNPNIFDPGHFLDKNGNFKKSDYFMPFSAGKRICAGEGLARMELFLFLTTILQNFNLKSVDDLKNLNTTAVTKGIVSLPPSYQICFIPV

[13] = Pharmacokinetics and oral bioavailability after oral and IV administration; assay type: in vivo; conditions: rat
[14] = Organ distribution after IV administration; assay type: in vivo; conditions: rat, IV 10 mg/kg, 5 min after dosing
[15] = Intrabrain distribution after IV administration; assay type: in vivo; conditions: rat, IV 10 mg/kg, 5 min after dosing
[16] = test system: CYP2D6; assay: Western blot of liver CYP2D6 protein expression; assay type: in vivo; conditions: rat liver, crocetin with donepezil compared to only donepezil
[17] = test system: CYP3A4; assay: Western blot of liver CYP3A4 protein expression; assay type: in vivo; conditions: rat liver, crocetin with galantamine compared to only galantamine
[18] = test system: Caco-2 barrier; conditions: ref 50 (Lautenschlager et al.); cited from earlier work
[19] = systemic circulation after oral administration of crocin; cited from earlier work
[20] = target: CYP2D6 (Homo sapiens, UniProt P10635); assay: CYP inhibition in HLM, CYP2D6; conditions: IC50 (μM), dextromethorphan O-demethylation
CYP2D6 (Homo sapiens, UniProt P10635), sequence (P10635 whole entry): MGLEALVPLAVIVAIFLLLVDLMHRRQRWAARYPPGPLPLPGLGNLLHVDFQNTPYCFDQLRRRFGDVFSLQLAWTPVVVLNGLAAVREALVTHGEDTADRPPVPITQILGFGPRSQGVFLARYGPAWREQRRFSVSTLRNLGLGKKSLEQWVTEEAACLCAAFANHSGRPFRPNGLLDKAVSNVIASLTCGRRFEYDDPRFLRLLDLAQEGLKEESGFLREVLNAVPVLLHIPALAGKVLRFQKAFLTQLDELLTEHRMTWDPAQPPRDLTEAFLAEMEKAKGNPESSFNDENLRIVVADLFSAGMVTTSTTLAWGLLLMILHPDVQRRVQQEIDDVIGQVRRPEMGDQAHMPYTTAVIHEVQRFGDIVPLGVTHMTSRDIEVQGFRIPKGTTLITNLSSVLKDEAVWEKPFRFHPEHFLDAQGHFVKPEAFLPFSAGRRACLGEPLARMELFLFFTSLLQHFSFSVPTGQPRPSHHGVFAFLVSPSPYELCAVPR

[21] = female, Wistar, plasma, other: oral and intravenous

P-gp (Homo sapiens, UniProt P08183), sequence (P08183 whole entry): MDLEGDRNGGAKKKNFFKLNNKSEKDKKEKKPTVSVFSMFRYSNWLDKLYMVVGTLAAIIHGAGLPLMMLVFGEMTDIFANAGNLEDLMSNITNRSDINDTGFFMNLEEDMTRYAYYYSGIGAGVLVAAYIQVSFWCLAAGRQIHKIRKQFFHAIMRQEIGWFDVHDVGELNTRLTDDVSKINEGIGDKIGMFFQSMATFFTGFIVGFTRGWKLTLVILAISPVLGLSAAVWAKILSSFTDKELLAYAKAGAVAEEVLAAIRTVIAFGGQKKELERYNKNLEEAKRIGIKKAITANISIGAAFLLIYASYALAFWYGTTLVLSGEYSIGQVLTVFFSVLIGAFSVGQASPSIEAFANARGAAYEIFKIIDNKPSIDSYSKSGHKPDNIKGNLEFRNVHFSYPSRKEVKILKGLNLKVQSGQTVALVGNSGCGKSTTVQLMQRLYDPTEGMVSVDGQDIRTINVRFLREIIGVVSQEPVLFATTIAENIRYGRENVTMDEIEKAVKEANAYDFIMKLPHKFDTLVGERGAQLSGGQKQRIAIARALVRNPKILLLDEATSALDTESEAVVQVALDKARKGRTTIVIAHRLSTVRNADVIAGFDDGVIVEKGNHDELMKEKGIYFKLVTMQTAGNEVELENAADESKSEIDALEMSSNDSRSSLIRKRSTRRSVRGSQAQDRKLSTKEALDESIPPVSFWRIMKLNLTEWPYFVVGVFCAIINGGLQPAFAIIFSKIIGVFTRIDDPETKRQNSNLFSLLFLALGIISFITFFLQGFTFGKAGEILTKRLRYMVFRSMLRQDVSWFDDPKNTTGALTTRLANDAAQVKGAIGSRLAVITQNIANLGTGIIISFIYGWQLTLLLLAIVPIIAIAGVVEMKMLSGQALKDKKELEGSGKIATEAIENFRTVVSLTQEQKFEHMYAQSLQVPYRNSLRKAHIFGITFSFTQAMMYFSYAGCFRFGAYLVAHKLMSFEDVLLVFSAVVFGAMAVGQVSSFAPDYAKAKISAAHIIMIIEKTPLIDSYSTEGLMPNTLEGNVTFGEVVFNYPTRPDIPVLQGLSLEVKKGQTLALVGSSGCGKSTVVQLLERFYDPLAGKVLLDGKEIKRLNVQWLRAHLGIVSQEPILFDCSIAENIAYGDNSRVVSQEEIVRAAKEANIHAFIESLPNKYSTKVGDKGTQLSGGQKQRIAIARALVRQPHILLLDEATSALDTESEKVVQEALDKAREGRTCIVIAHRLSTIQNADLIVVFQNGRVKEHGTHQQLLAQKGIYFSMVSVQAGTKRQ

Compound: CCCC1O[C@@H]2C[C@H]3[C@@H]4CCC5=CC(=O)C=C[C@]5(C)[C@H]4[C@@H](O)C[C@]3(C)[C@]2(C(=O)CO)O1 (stereo partly drawn) [budesonide]
aqueous solubility (category of the standard) [1]: 10 to 100 µg/mL

Compound: COc1ccc(CCN2CCC(Nc3nc4ccccc4n3Cc3ccc(F)cc3)CC2)cc1 [astemizole]
aqueous solubility (category of the standard) [1]: < 10 µg/mL

P-gp inhibition (increase in intracellular accumulation of Rh123) ([2]; standard, 10 µM): significant inhibition of P-gp
Compound: O[C@@H](COc1cccc2ncccc12)CN1CCN([C@@H]2c3ccccc3[C@@H]3[C@H](c4ccccc42)C3(F)F)CC1 [zosuquidar, reference compound]

Compound: CO[C@H]1/C=C/O[C@@]2(C)Oc3c(C)c(O)c4c(O)c(c(/C=N/N5CCN(C)CC5)c(O)c4c3C2=O)NC(=O)/C(C)=C\C=C\[C@H](C)[C@H](O)[C@@H](C)[C@@H](O)[C@@H](C)[C@H](OC(C)=O)[C@@H]1C [rifampicin, reference compound]
P-gp induction (decrease in intracellular accumulation of Rh123) ([3]; standard, 10 µM): significant induction of P-gp

solubility at 1 h [4]: 0.6 µg/mL (≈ 1.83 µM)
pKa [5]: 5.35
intact (chemical stability) ([6]; SGF (pH 1.2), 2 h): 72%
intact (chemical stability) ([6]; SIF (pH 6.8), 4 h): 68%
Papp at 5 h, 5 μM [7]: 3.89 ×10⁻⁶ cm/s
P-gp inhibitory activity ([2]; Rh123, 1 to 50 μM): no marked P-gp inhibitory activity
degradation in plasma [8]: < 5%
fraction unbound at 4 h, 5 µM [9]: 0.03
blood plasma ratio at 0 min, 1000 nM [10]: 0.36 ± 0.01
blood plasma ratio at 60 min, 1000 nM [10]: 0.39 ± 0.04
remaining intact in liver microsomes [11]: > 83%
IC50 [12]: 35.3 µM
clearance [13, 21]: ≤ 16.7 mL/min/kg
half-life [13, 21]: > 2 h
maximum plasma concentration ([13]; oral 20 mg/kg): 23 µM
order of concentrations in brain parts [15]: cortex > cerebellum > hippocampus
CYP2D6 protein expression (down-regulation) [16]: 0.73 fold
CYP3A4 protein expression (down-regulation) [17]: 0.61 fold
IC50 [20]: 20.4 µM
Compound: CC(/C=C/C=C(\C)C(=O)O)=C\C=C\C=C(C)\C=C\C=C(/C)C(=O)O [crocetin]
P-gp induction ([3]; Rh123, 25–50 μM): 22–24%
order of concentrations in organs [14]: liver > lungs > heart > kidney > spleen > brain
Papp [18]: 2.6 ± 0.6 × 10^–5 cm/s
exposure of crocetin relative to crocin [19]: 56–81 fold

Reference: article PMC11097163 (ACS Omega, 2024)
